In patent US12281329B2, “Compositions and methods for immune cell modulation in adoptive immunotherapies” (Fate Therapeutics, Inc., priority 2016, dated 2025):

What was measured:
[1] = test system: CD20+ Raji cells; assay: NK cell cytotoxicity assay, Raji target cells; assay type: cell-based, human; settings: 4 hours; NK cells overnight IL-15 only or 7 days IL15 + GSK3i
Protocol: NK Cell Cytotoxicity Assay: Cytotoxicity was determined using a flow cytometry based method based on a previously published method (Kim, et al. J Immunol Methods. 2007 Aug. 31; 325(1-2): 51-66). NK cells were co-cultured with e450-proliferation dye-labelled targets for 4 hours. CellEvent™ Caspase-3/7 Green Flow Cytometry Assay Kit (Lifer Technologies) was used to assay for cell death among target cells, and samples were read on a BD LSRFortessa cytometer. Killing of SKOV-3 targets was quantified using the Incucyte Zoom instrument. SKOV-3 cells were transiently transduced with NucLight-Red BacMam reagent (Essen Biosciences) and co-cultured with the indicated NK cell populations for 74 hours, with images taken on two hour intervals. Caspase 3/7 activity was monitored to indicate target cells undergoing apoptosis using the CellEvent™ Caspase-3/7 Green Detection Reagent. The number of target cells was normalized to SKOV-3 cells cultured alone, and targets undergoing apoptosis were quantified based on caspase 3/7 activity.
The ability of GSK3 inhibition to enhance cytotoxicity of NK cells isolated directly from donors was assessed using in vitro killing assays. […] After the target cells were incubated with the differently treated NK cells for 4 hours, the respective percentage of specific killing (target cell lysis) was calculated. […]

[2] = test system: K562 tumor cells and allogeneic PBMC; assay: Dual-target cytotoxicity assay, K562 tumor cells mixed with allogeneic PBMC; assay type: cell-based, human; settings: GSK3i modulated NK cells; 3-4 NK cell donors per PBMC donor
Protocol: Cytotoxicity of GSK3i modulated NK cells against allogeneic PBMC was evaluated in combination with K562 tumor cells in a dual-target cytotoxicity assay. Percent specific killing in PBMC+K562+overnight primed NK cells or PBMC+K562+GSK3i modulated NK cells was measured.

[3] = test system: HER2+A549 cells; assay: NK cell Herceptin ADCC killing of A549 cells; assay type: cell-based, human; settings: NK cells cultured with GSK3i for 7 days
[4] = test system: NK cells; assay: Maintenance of modulated NK cell phenotype after transfer into NSG mice; assay type: in vivo
Protocol: The mice received only IL-15 with no GSK3i. It was shown that NK cells cultured in vitro with GSK3i for 7 days maintain their phenotypic changes in vivo for at least one week after being transferred and without the presence of the small molecule. CD57 remains high representing the maturity of the NK cells which was not the case when the cells were cultured without GSK3i (FIGS. 9A and 9B).

[5] = test system: NK cells; assay: Feeder-free culture of CD3/CD19 depleted PBMC with IL-15 and GSK3 inhibitor: NK cell expansion and phenotype; assay type: cell-based, human
Protocol: NK Cell Isolation. Healthy adult donor blood was obtained from commercial sources or from GCRC core laboratory of Scripps Research Institute, La Jolla, CA Peripheral blood mononuclear cells (PBMC) were isolated by density gradient centrifugation using Ficoll-Paque PLUS (GE Healthcare: Life Sciences) and then depleted of B and T cells without culturing the PBMC using CD19 Microbeads (Miltenyi Biotec, #130-050-301) and CD3 Microbeads (Miltenyi Biotec, #130-050-101) within 24 to 36 hours according to manufacturer directions.
NK cell culture: CD3/CD19 depleted PBMC (0.5-1×10E6/mL) were cultured in BO medium (2:1 mixture of DMEM, (Corning Cell-Gro #10-017-CV) and Ham's F12 (Corning Cell-Gro #10-080-C) with 10% human AB serum (Valley Biomedical, #HP1022), 100 U/mL penicillin and 100 ug/mL streptomycin (Corning, 30-002-CI), 20 uM 2-mercaptoethanol (Sigma, M3148), 50 uM ethanolamine (Sigma, E0135), 10 ug/mL ascorbic acid (Sigma, A4544), and 1.6 ng/mL sodium selenite (Sigma, S5261). Cells were cultured for 7-8 days (up to four weeks) in medium containing 10 ng/mL recombinant human IL-15 (Life Technologies, PHC9154) with or without GSK3 inhibitor CHIR99021 (BioVision #1677-5), histone lysine methyltransferase inhibitor BIX 01294 (Tocris, 3364), TGF-β1 receptor inhibitor SB-431542 (BioVison, 1674-5), or human interferon alpha (R&D Systems, 11200-1). After culturing, cells were counted using trypan blue or by Cellometer (Nexcelom) and used for flow cytometry and functional assays. Flow cytometry was performed on a BD LSRFortessa and results were analyzed by FlowJo software. Commercially available antibodies to the following surface markers were used for flow cytometry: CD3, CD14, CD16, CD19, CD56, CD57 and NKG2C (BD Biosciences, Biolegend, or R&D Systems). Where indicated, K562 feeder cells were used. Where indicated other modulators and culture reagents were added.
One aspect of the present invention is to provide a method and a system to culture, expand and/or modulate NK cells for adoptive cell therapy. In some embodiments, the method and system for culturing, expanding and/or modulating NK cells is without the use of feeder cells, or feeder cell conditioned medium. Peripheral blood mononuclear cells (PBMC) were isolated from healthy adult donors. The isolated apheresis product (Day 0, pre-depletion; FIG. 2A) was T and B cell depleted using anti-CD19 and CD3 antibodies without pre-depletion culturing (Day 0, post-depletion; FIG. 2B). The post-depletion cell population was then cultured in a feeder free condition with the presence of recombinant human IL-15 (10 ng/mL) and 5 μM CHIR99021, a GSK3 inhibitor, for about 3 to 7 days.

[6] = 7 day culture with GSK3 inhibitor vs cultured without GSK3i
[7] = Day 7 GSK3i culture vs overnight primed

Cc1c[nH]c(-c2cnc(NCCNc3ccc(C#N)cn3)nc2-c2ccc(Cl)cc2Cl)n1 [CHIR99021]
E:T50, Raji cells [1]: 1-2 | percent specific killing of K562 versus allogeneic PBMC [2]: selectively target those cells among normal cells | ADCC-mediated killing of A549 cells (rate and efficiency) [3]: enhanced | CD57 on NK cells from peripheral blood ([4]; 7 days after transfer of 7 day IL15+GSK3i cultured NK cells, mice received only IL-15): remains high | CD16 and NKG2C+/CD57+ on transferred NK cells ([4]; 7 days after transfer, without small molecule): maintained in vivo | percentage of CD57+ cells in the total NK populations ([5]; 7 day culture with GSK3i vs 7 day without GSK3i): increased | CD57+ NK cell number, increase on average [5, 6]: 7-8 fold | CD57+NKG2C+ NK cell number, increase on average [5, 6]: 7-8 fold | NK cell (CD56+CD3−) percentage in population ([5]; Day 7, IL-15 10 ng/mL + 5 μM CHIR99021, feeder free, about 20% post-depletion Day 0): about 99% | remaining T cells (CD56-CD3+) percentage in population ([5]; Day 7, IL-15 10 ng/mL + 5 μM CHIR99021, about 1% post-depletion): 0.25% | cell number of CD57+ NK subset, increase on average [5, 7]: 5-6 fold | cell number of CD57+NKG2C+ NK subset, increase on average [5, 7]: 5-6 fold | frequency of CD57+ cells in the culture ([5]; short term treatment, 16 hours, comparable to vehicle): did not generate a higher frequency
